Reference: patent publication US4432984A, “Anti-hypertensive benzodioxan derivatives” (Bouchara; Emile, priority 1981, dated 1984)
Where a name gives a salt, the structure may show the parent alone.

How the values were obtained:
central nervous system = test: Effects on the central nervous system in mice; type: in vivo; conditions: oral, same dosages which induce an anti-hypertensive activity in rats
Description: Such central effects may be directly related to the hypotensive action.

[1] = Acute toxicity in mice by the oral route; conditions: mouse, in vivo, per os, read-out: Approximate lethal dose 50 (LD50)
Procedure: Toxicity was determined in mice by the oral route.

Row | Structure (SMILES) | aggressiveness (central nervous system) | experimentally-induced sleep (central nervous system) | sedation (central nervous system) | LD50 [1] [mg/kg]
1 | O=C(c1ccc(F)cc1)C1CCN(CC2COc3ccccc3O2)CC1 (centres unmarked) [Example 2, 1-[(2,3-Dihydro-4H-1,4-benzodioxin)-2-ylmethyl]-4-(4-fluorobenzoyl)piperidine hydrochloride] | a decrease of the aggressiveness | a potentiation of the experimentally-induced sleep | a state of sedation | 495 to 655
2 | O=C(Oc1ccc(C(=O)C2CCN(CC3COc4ccccc4O3)CC2)cc1)c1cccnc1 (centres unmarked) [Example 8, 1-[(2,3-Dihydro-4H-1,4-benzodioxin)-2-ylmethyl]-4-(4-hydroxybenzoyl)piperidine nicotinate] | – | – | – | > 3200
